Results reported in patent US6500864B1, “Disulfide derivatives useful for treating allergic diseases” (Alcon Universal Ltd., priority 2000, dated 2002).

Tested on: human conjunctival tissue mast cells
Assay: Inhibition of anti-human IgE induced histamine release from human conjunctival tissue mast cells (HCTMC), histamine by RIA
Assay type: cell-based
Details: Mast cell, bracketed value, equals the mean of the four single determinations in the same cell, read-out: IC50 (nM), value in square brackets
Method: Methods detailing preparation of monodispersed HCTMC and mediator release studies with these cells have been described (U.S. Pat. No. 5,360,720 and Miller et al, Ocular Immunology and Inflammation, 4(1):39-49 (1996)). Briefly, human conjunctival tissue mast cells were isolated from post-mortem tissue donors obtained within 8 hours of death by various eye banks and transported in Dexsol® corneal preservation medium, or equivalent. Tissues were enzymatically digested by repeated exposure (30 min. at 37° C.) to collagenase and hyaluronidase (2× with 200 U each/gram tissue, then 2-4× with 2000 U each/gram tissue) in Tyrode's buffer containing 0.1% gelatin. (Tyrode's buffer (in mM): 137 NaCl, 2.7 KCl, 0.35 NaH2PO4, 1.8 CaCl2, 0.98 MgCl2, 11.9 NaHCO3, and 5.5 glucose). […]
Cells were harvested from the culture plate and counted for viability (trypan blue exclusion) and mast cell number (toluidine blue O). […] Supernatants were stored at −20° C. until analyzed for histamine content by RIA (Beckman Coulter, Chicago, Ill.). […]
Inhibition of histamine release was determined by direct comparison of with anti-IgE challenged mast cells using Dunnett's t-test (Dunnett, “A multiple comparison procedure for comparing treatments with a control”, J. Amer. Stat. Assoc. (1955), 50:1096-1121).

IC50: 194 nM
Compound: C=CCNC(=O)Nc1ccccc1SSc1ccccc1NC(=O)NCC=C [Compound 1]
